In brackets after ≈: the same amount, converted by molar mass. Read-outs that look alike come from different tables or passages of the source.

The subject of one data set is red blood cells. Type of data set: cell-based. As to the method:
The haemolytic activity of benzothiazole derivatives has already been reported. […] Benzothiazole compounds with halogen substitutions show cytotoxicity towards cancer cell lines. The haemolytic activity of the newly synthesized benzothiazole derivatives were studied against Triton X-100 by a reported method.
Haemolytic activity of newly synthesized benzothiazole derivatives 3a–3h was determined using a reported method. Solutions of compounds were prepared at concentrations of 1 mg/mL in 10% DMSO with 90% water Heparinized human fresh blood (3 mL) was used that was homogeneously mixed and added into a 15 mL sterile Falcon tube. It was centrifuged for 5 min and the supernatant was removed. Chilled sterile isotonic phosphate buffer saline solution (5 mL, 7.4 pH) at 4 °C was used three times. Washed red blood cells were suspended in chilled RBS (20 mL). A haemacytometer was used for counting erythrocytes. For each assay 7.068 × 10^8 red blood cells per mL count were maintained and then diluted blood cells (180 µL) were added to the test compound (20 µL) and suspended in Eppendorf tubes. It was incubated for 35 min at 37 °C then the tubes were kept in an ice bath for 5 min and centrifuged again for 5 min. After centrifugation, the obtained supernatant was collected carefully and diluted with 900 µL of chilled PBS. All these tubes were kept in ice bath and solution (200 µL) was added into 96 well plates from each Eppendrof tube. For each essay, Triton X-100 (0.1%) was taken as positive control. For negative control, phosphate buffer was used. A microplate reader was used for determining the absorbance at 576 nm.

Data set [1] can be described thus: Nitric oxide scavenging assay (Garrat method, Griess reagent). As to the method: The literature contains reports on the antioxidant activities of 6-flourobenzothiazole-substituted triazoles using DPPH assays. […] Having a phenyl ring on the pyrozoline increased the antioxidant activity in the ferric ion reduction and DPPH solution methods. […] Synthesized compounds with their calculated IC50 values are listed in Table 5 (Figure 8 and Figure 9).
The activity of newly synthesized benzothiazole derivatives was determined using the Garrat method. Griess reported the Garrat method which is followed by a diazotization reaction. Under acidic conditions, this method utilizes sodium nitroprusside as the source of nitric oxide, sulfanilamide and N-1-naphthylethylenediamine dihydrochloride to detect NO2^−, produced at the expense of nitric oxide. A known amount of tested compounds 3a–3h was dissolved in sodium nitroprusside solution (20 mM, 100 µL) and then the volume was made up to 1000 µL with phosphate buffer (200 mM, pH 7.4). This solution was incubated for 2 h at 37 °C and Griess reagent (100 µL) was added. This solution was stored for 20 min at room temperature. At 528 nm, optical density of this colored solution was observed. For positive control, ascorbic acid was used.
A general note: Nitrite, measured by Griess reagent, commonly stands in for NO production.

The target in another data set is urease (Canavalia ensiformis, UniProt P07374). The experiment in a line: biochemical. Type of data set: biochemical. The conditions noted are these: for IC50: urease inhibition, in vitro; for inhibition at 15 µg/mL: read-out: % Inhibition at 15 µg/mL, 15 µg/mL; for inhibition at 15 µg/mL / inhibition at 40 µg/mL / % Inhibition at 40 µg/mL: mean ± SD of three measurements; for inhibition at 40 µg/mL: read-out: % Inhibition at 40 µg/mL, 40 µg/mL.

A further data set relates to S. dysenteriae. The experiment in a line: Antibacterial activity, 96 well plate method. Type of data set: cell-based. The conditions noted are these: Shigella dysenteriae, read-out: % Activity at 40 μg/mL, S. dysenteriae. As to the method:
The synthesized benzothiazole derivatives were examined for their anti-bacterial activity against two Gram positive-bacterial strains (Baccilus subtiles, Staphylococcus aureus) and four Gram-negative strains (Escherichia coli, Psuedomonas aeruginosa, Shigella dysenteriae, Salmonella typhae) at concentrations of 40 and 80 μg/mL (Table 7 and Table 8). It was concluded that the potent antibacterial activities of these compounds might be due to electron withdrawing groups present on the aryl moiety in N-protected benzothiazole molecule.
These newly benzothiazole derivatives were tested for their antibacterial activities against two Gram positive strains (Baccilus subtilis, Staphylococcus aureus) and four Gram negative strains (Escherichia coli, Psuedomonas aeruginosa, Shigella dysenteriae and Salmonella typhae) using a reported protocol. Streptomycin was used as positive control. The 96 well plate method was optimized for measuring the antibacterial activities of these compounds. In each well, sterilized broth (175 µL) was added and inoculated with glycerol stock (5 µL) of a specific bacterial strain. The initial absorbance was observed between 0.12–0.19. […] After a certain waiting time (12 h), test sample (20 µL) was added to the pre-determined wells. […] The difference in absorbance values were observed and were used as an index of bacterial growth. […]

Where [2] appears, read: human, 35 min, 0.1 mg/mL, pH 7.4.

Chain of urease (P07374 whole entry, looked up): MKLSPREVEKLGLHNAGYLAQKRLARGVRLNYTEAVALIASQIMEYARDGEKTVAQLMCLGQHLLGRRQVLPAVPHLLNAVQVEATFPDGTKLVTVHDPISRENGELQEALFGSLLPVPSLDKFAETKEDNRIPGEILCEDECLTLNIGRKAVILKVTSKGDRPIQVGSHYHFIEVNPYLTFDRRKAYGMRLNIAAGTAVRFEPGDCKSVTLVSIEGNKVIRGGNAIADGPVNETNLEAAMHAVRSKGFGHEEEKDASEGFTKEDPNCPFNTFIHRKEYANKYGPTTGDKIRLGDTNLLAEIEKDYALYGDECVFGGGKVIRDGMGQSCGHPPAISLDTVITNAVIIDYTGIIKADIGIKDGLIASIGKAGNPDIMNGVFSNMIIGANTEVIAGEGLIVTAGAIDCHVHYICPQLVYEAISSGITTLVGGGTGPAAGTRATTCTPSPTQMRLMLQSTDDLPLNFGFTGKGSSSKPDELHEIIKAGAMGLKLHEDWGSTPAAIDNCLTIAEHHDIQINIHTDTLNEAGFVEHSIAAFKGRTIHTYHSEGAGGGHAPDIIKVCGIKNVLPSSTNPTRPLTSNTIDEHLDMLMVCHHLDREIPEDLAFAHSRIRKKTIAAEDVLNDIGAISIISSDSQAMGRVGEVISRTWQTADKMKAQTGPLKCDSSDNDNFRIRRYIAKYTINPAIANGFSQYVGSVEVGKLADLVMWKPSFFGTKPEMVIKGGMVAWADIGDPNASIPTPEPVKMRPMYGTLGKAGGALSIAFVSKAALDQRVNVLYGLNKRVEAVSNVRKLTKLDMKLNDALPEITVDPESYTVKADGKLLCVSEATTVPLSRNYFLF

As for `CC(=O)Nc1nc2ccc(Br)cc2s1` [Compound 2, N-(6-bromobenzo[d]thiazol-2-yl)acetamide], the “% lysis of RBC” value in the data set with red blood cells (compound solutions 1 mg/mL in 10% DMSO, human RBC, 35 min at 37 °C, mean ± SD of three) worked out at 44.628 ± 0.369%.

In the case of `CC(=O)Nc1nc2ccc(-c3ccc(F)c(Cl)c3)cc2s1` [Compound 3g, N-(6-(3-Chloro-4-fluorophenyl)benzo[d]thiazol-2-yl)acetamide], the melting point (commonly the temperature, or range, at which the solid turns liquid) lay in the range of 166 to 167 °C. In addition, the “IC50 (µg/mL) nitric oxide scavenging” value in data set [1] came out at 39.1 µg/mL (≈ 122 µM). In the data set on red blood cells (setting [2]), the “% lysis of RBC” value is 43.614 ± 0.157%. For the same compound, the IC50 (usually the concentration that gives 50% inhibition) against urease (IC50 (µg/mL)) is 58.9 µM. Also, at urease, the inhibition at 15 µg/mL worked out at 42 ± 0.14% and the inhibition at 40 µg/mL turned out to be 87 ± 0.26%.

For `CC(=O)Nc1nc2ccc(-c3ccc(C)cc3)cc2s1` [Compound 3b, N-(6-(p-Tolyl)benzo[d]thiazol-2-yl)acetamide], the melting point lay within 205 to 207 °C. In addition, in data set [1], the “IC50 (µg/mL) nitric oxide scavenging” value was determined as 26.4 µg/mL (≈ 93.5 µM). Besides, the “% lysis of RBC” value with red blood cells (setting [2]) worked out at 44.179 ± 0.157%. Moreover, half-maximal inhibition at urease (IC50 (µg/mL)) (IC50) required 58.4 µM. Also, on urease, the inhibition at 15 µg/mL is 47 ± 0.11% and the inhibition at 40 µg/mL was 90.51 ± 0.19%.

In the case of `CC(=O)Nc1nc2ccc(-c3cc(C(F)(F)F)cc(C(F)(F)F)c3)cc2s1` [Compound 3c, N-(6-(3,5-bis(Trifluoromethyl)phenyl)benzo[d]thiazol-2-yl)acetamide], in the data set with red blood cells (setting [2]), the “% lysis of RBC” value amounted to 47.089 ± 0.130%. At urease, the % Inhibition – broadly, the relative decrease from the control value, in per cent – at 40 µg/mL worked out at 90.07 ± 0.20%; the inhibition at 15 µg/mL was 46.09 ± 0.1%; the inhibition at 40 µg/mL stood at 90.33 ± 0.2%. In addition, the IC50 at urease (IC50 (µg/mL)) was 42.5 µM.

With `CC(=O)Nc1nc2ccc(-c3cc(C#N)cc(C(F)(F)F)c3)cc2s1` [Compound 3f, N-(6-(3-Cyano-5-(trifluoromethyl)phenyl)benzo[d]thiazol-2-yl)acetamide], in data set [1], the “nitric oxide scavenging activity (in words)” value is “inactive”. For the same compound, the “% lysis of RBC” value in the data set with red blood cells (setting [2]) is reported as 44.063 ± 0.314%. At urease (IC50 (µg/mL)), this compound gave an IC50 of 53.1 µM. For the same compound, at urease, the inhibition at 15 µg/mL is 42 ± 0.12% and the inhibition at 40 µg/mL was 87.5 ± 0.26%.

Turning to `NC(N)=S` [Thiourea, reference compound], the “IC50” value on urease is listed as 23.1 µg/mL.

Consider `CC(=O)Nc1nc2ccc(-c3ccc(C)s3)cc2s1` [Compound 3e, N-(6-(5-Methylthiophen-2-yl)benzo[d]thiazol-2-yl)acetamide], for which, in data set [1], the “IC50 (µg/mL) nitric oxide scavenging” value is on record as 37.1 µg/mL (≈ 129 µM). In addition, the “% lysis of RBC” value in the data set with red blood cells (setting [2]) was found to be 44.425 ± 0.181%. On urease (IC50 (µg/mL)), this compound had an IC50 of 59.6 µM. Moreover, at urease, the inhibition at 15 µg/mL was found to be 46 ± 0.12% and the inhibition at 40 µg/mL came out at 87 ± 0.26%.

Take `CC(=O)Nc1nc2ccc(-c3ccccc3)cc2s1` [Compound 3a, N-(6-Phenylbenzo[d]thiazol-2-yl)acetamide]: in data set [1], the “IC50 (µg/mL) nitric oxide scavenging” value was found to be 32.7 µg/mL (≈ 122 µM). The “% lysis of RBC” value in the data set on red blood cells (setting [2]) is 42.123 ± 0.479%. The same compound showed an IC50 at urease (IC50 (µg/mL)) of 69.3 µM. At urease, the inhibition at 15 µg/mL was found to be 44 ± 0.12% and the inhibition at 40 µg/mL amounted to 83.9 ± 0.12%.

Regarding `O=C1O[C@H]([C@@H](O)CO)C(O)=C1O` [Ascorbic acid, reference compound], the “IC50 (µg/mL) nitric oxide scavenging” value in data set [1] came to 50.43 µg/mL (≈ 286 µM).

`CC(=O)Nc1nc2ccc(-c3cc(C)cc(C)c3)cc2s1` [Compound 3h, N-(6-(3,5-Dimethylphenyl)benzo[d]thiazol-2-yl)acetamide] returned a melting point of 205 to 207 °C. Moreover, the “IC50 (µg/mL) nitric oxide scavenging” value in data set [1] turned out to be 32.3 µg/mL (≈ 109 µM). For the same compound, the inhibition at 40 µg/mL in the data set with S. dysenteriae was determined as 3.51 ± 0.43%. Moreover, in the data set with red blood cells (setting [2]), the “% lysis of RBC” value was found to be 40.661 ± 0.216%. Further, on urease, the “% Inhibition at 40 µg/mL” value was determined as 90.33 ± 0.20%, the inhibition at 15 µg/mL was 43.59 ± 0.13% and the inhibition at 40 µg/mL was found to be 90.07 ± 0.2%. The same compound showed an IC50 on urease (IC50 (µg/mL)) of 62.1 µM.

In turn, `COc1ccc(-c2ccc3nc(NC(C)=O)sc3c2)cc1` [Compound 3d, N-(6-(4-Methoxyphenyl)benzo[d]thiazol-2-yl)acetamide] yielded a melting point of 218 to 220 °C. Also, the “% lysis of RBC” value in the data set on red blood cells (setting [2]) was found to be 44.078 ± 0.279%. The compound further gave an IC50 on urease (IC50 (µg/mL)) of 57 µM. Moreover, on urease, the inhibition at 15 µg/mL came out at 46.5 ± 0.15% and the inhibition at 40 µg/mL came to 88.5 ± 0.24%.

These data come from paper PMC6273329, “Synthesis of N-(6-Arylbenzo[d]thiazole-2-acetamide Derivatives and Their Biological Activities: An Experimental and Computational Approach” (Molecules, 2016).
